Target: T1, catalytic domain of Human PARP (Homo sapiens, UniProt P09874)
T1 construct: The catalytic domain of Human PARP was cloned and prepared; made in house
Experiment: Biacore surface plasmon resonance affinity assay
Assay type: binding
Conditions: pKD=-log10 KD, KD in mol/L; Biacore T100, 25° C.; read-out: pKD (converted)
Procedure, shortened: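 Human PARP catalytic domain amine-coupled to CM5 chip; compounds run as 2-fold series in HBS-P with 1% DMSO, 0.5 mM TCEP, 5 mM MgCl2.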

T1 sequence (P09874 788-1014 limits assumed): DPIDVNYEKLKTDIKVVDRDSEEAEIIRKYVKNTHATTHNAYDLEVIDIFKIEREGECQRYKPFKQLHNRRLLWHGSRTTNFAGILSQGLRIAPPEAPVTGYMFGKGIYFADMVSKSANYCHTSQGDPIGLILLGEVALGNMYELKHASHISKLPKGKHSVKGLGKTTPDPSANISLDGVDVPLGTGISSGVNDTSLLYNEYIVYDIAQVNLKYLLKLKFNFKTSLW

With `CC1Oc2ccc(-c3cccc(C(=O)N4CCCC4)c3)cc2NC1=O` (stereo not drawn) [Compound 145, 2-Methyl-6-(3-(pyrrolidine-1-carbonyl)phenyl)-2H-benzo[b][1,4]oxazin-3(4H)-one] the Kd was > 10 µM.
For `CC1Oc2ccc(-c3cccc(C(=O)N4CCOCC4)c3)cc2NC1=O` (stereo not drawn) [Compound 146, 2-Methyl-6-(3-(morpholine-4-carbonyl)phenyl)-2H-benzo[b][1,4]oxazin-3(4H)-one], the Kd was > 10 µM.
`CC1Oc2ccc(-c3cccc(C(=O)NCc4ccccc4)c3)cc2NC1=O` (stereo not drawn) [Compound 147, N-Benzyl-3-(2-methyl-3-oxo-3,4-dihydro-2H-benzo[b][1,4]oxazin-6-yl)benzamide] was tested, and the Kd was > 10 µM.
`CC(=O)Nc1cccc(-c2ccc3c(c2)NC(=O)C(C)O3)c1` (stereo not drawn) [Compound 148, N-(3-(2-Methyl-3-oxo-3,4-dihydro-2H-benzo[b][1,4]oxazin-6-yl)phenyl)acetamide] was tested, and the Kd was > 10 µM.
With `CC(C)NS(=O)(=O)c1cccc(-c2ccc3c(c2)NC(=O)C(C)O3)c1` (stereo not drawn) [Compound 149, N-Isopropyl-3-(2-methyl-3-oxo-3,4-dihydro-2H-benzo[b][1,4]oxazin-6-yl)benzenesulfonamide] the Kd was > 10 µM.
With `CC1Oc2ccc(-c3ccc(C(N)=O)cc3)cc2NC1=O` (stereo not drawn) [Compound 150, 4-(2-Methyl-3-oxo-3,4-dihydro-2H-benzo[b][1,4]oxazin-6-yl)benzamide] the Kd was > 10 µM.
For `CNC(=O)c1ccc(-c2ccc3c(c2)NC(=O)C(C)O3)cc1` (stereo not drawn) [Compound 151, N-Methyl-4-(2-methyl-3-oxo-3,4-dihydro-2H-benzo[b][1,4]oxazin-6-yl)benzamide], the Kd was > 10 µM.
For `CONC(=O)c1ccc(-c2ccc3c(c2)NC(=O)C(C)O3)cc1` (stereo not drawn) [Compound 152, N-Methoxy-4-(2-methyl-3-oxo-3,4-dihydro-2H-benzo[b][1,4]oxazin-6-yl)benzamide], the Kd was > 10 µM.
With `CC1Oc2ccc(-c3ccc(C(=O)NC4CCCCC4)cc3)cc2NC1=O` (stereo not drawn) [Compound 153, N-Cyclohexyl-4-(2-methyl-3-oxo-3,4-dihydro-2H-benzo[b][1,4]oxazin-6-yl)benzamide] the Kd was > 10 µM.
With `CC1Oc2ccc(-c3ccc(C(=O)N4CCN(C)CC4)cc3)cc2NC1=O` (stereo not drawn) [Compound 154, 2-Methyl-6-(4-(4-methylpiperazine-1-carbonyl)phenyl)-2H-benzo[b][1,4]oxazin-3(4H)-one] the Kd was > 10 µM.
In the case of `CC(=O)Nc1ccc(-c2ccc3c(c2)NC(=O)C(C)O3)cc1` (stereo not drawn) [Compound 155, N-(4-(2-Methyl-3-oxo-3,4-dihydro-2H-benzo[b][1,4]oxazin-6-yl)phenyl)acetamide], the Kd was > 10 µM.
In the case of `CC1Oc2ccc(CN3CCN(CC(=O)O)CC3)cc2NC1=O` (stereo not drawn) [Compound 168, 2-(4-((2-Methyl-3-oxo-3,4-dihydro-2H-benzo[b][1,4]oxazin-6-yl)methyl)piperazin-1-yl)acetic acid], the Kd was ≥ 100 µM.
For `CC1Oc2ccc(CN3CCC(CC(=O)O)CC3)cc2NC1=O` (stereo not drawn) [Compound 172, 2-(1-((2-Methyl-3-oxo-3,4-dihydro-2H-benzo[b][1,4]oxazin-6-yl)methyl)piperidin-4-yl)acetic acid], the Kd was > 10 µM.
With `CC(C)CNC(=O)CN1CCN(Cc2ccc3c(c2)NC(=O)C(C)O3)CC1` (stereo not drawn) [Compound 173, N-Isobutyl-2-(4-((2-methyl-3-oxo-3,4-dihydro-2H-benzo[b][1,4]oxazin-6-yl)methyl)piperazin-1-yl)acetamide] the Kd was 1.26 to 10 µM.
Compound `C=CCNC(=O)CN1CCN(Cc2ccc3c(c2)NC(=O)C(C)O3)CC1` (stereo not drawn) [Compound 174, N-Allyl-2-(4-((2-methyl-3-oxo-3,4-dihydro-2H-benzo[b][1,4]oxazin-6-yl)methyl)piperazin-1-yl)acetamide] has a Kd of 1.26 to 10 µM.
For `CCCNC(=O)CN1CCN(Cc2ccc3c(c2)NC(=O)C(C)O3)CC1` (stereo not drawn) [Compound 175, 2-(4-((2-Methyl-3-oxo-3,4-dihydro-2H-benzo[b][1,4]oxazin-6-yl)methyl)piperazin-1-yl)-N-propylacetamide], the Kd was > 10 µM.
For `CC1Oc2ccc(CN3CCN(CC(=O)NC4CC4)CC3)cc2NC1=O` (stereo not drawn) [Compound 176, N-Cyclopropyl-2-(4-((2-methyl-3-oxo-3,4-dihydro-2H-benzo[b][1,4]oxazin-6-yl)methyl)piperazin-1-yl)acetamide], the Kd was > 10 µM.
With `COCCNC(=O)CN1CCN(Cc2ccc3c(c2)NC(=O)C(C)O3)CC1` (stereo not drawn) [Compound 177, N-(2-Methoxyethyl)-2-(4-((2-methyl-3-oxo-3,4-dihydro-2H-benzo[b][1,4]oxazin-6-yl)methyl)piperazin-1-yl)acetamide] the Kd was > 10 µM.
In the case of `CCNC(=O)CN1CCN(Cc2ccc3c(c2)NC(=O)C(C)O3)CC1` (stereo not drawn) [Compound 178, N-Ethyl-2-(4-((2-methyl-3-oxo-3,4-dihydro-2H-benzo[b][1,4]oxazin-6-yl)methyl)piperazin-1-yl)acetamide], the Kd was > 10 µM.
`CC(C)NC(=O)CN1CCN(Cc2ccc3c(c2)NC(=O)C(C)O3)CC1` (stereo not drawn) [Compound 179, N-Isopropyl-2-(4-((2-methyl-3-oxo-3,4-dihydro-2H-benzo[b][1,4]oxazin-6-yl)methyl)piperazin-1-yl)acetamide] was tested, and the Kd was > 10 µM.
`CC1Oc2ccc(CN3CCN(CC(=O)NCC4CC4)CC3)cc2NC1=O` (stereo not drawn) [Compound 180, N-(Cyclopropylmethyl)-2-(4-((2-methyl-3-oxo-3,4-dihydro-2H-benzo[b][1,4]oxazin-6-yl)methyl)piperazin-1-yl)acetamide] was tested, and the Kd was > 10 µM.
In the case of `CC1Oc2ccc(CN3CCN(CC(=O)NS(C)(=O)=O)CC3)cc2NC1=O` (stereo not drawn) [Compound 181, 2-(4-((2-Methyl-3-oxo-3,4-dihydro-2H-benzo[b][1,4]oxazin-6-yl)methyl)piperazin-1-yl)-N-(methylsulfonyl)acetamide], the Kd was > 10 µM.
`CNC(=O)CC1CCN(Cc2ccc3c(c2)NC(=O)C(C)O3)CC1` (stereo not drawn) [Compound 182, N-Methyl-2-(1-((2-methyl-3-oxo-3,4-dihydro-2H-benzo[b][1,4]oxazin-6-yl)methyl)piperidin-4-yl)acetamide] was tested, and the Kd was 12.6 to 79.4 µM.
With `CC1Oc2ccc(CCCO)cc2NC1=O` (stereo not drawn) [Compound 188, 6-(3-Hydroxypropyl)-2-methyl-2H-benzo[b][1,4]oxazin-3(4H)-one] the Kd was > 10 µM.
`CNC(=O)OCCCc1ccc2c(c1)NC(=O)C(C)O2` (stereo not drawn) [Compound 189, 3-(2-Methyl-3-oxo-3,4-dihydro-2H-benzo[b][1,4]oxazin-6-yl)propyl methylcarbamate] was tested, and the Kd was > 10 µM.
`CCC1Oc2ccc(CN3CC=C(c4ccc(Cl)cc4)CC3)cc2NC1=O` (stereo not drawn) [Compound 193, 6-((4-(4-Chlorophenyl)-5,6-dihydropyridin-1(2H)-yl)methyl)-2-ethyl-2H-benzo[b][1,4]oxazin-3(4H)-one] was tested, and the Kd was ≥ 100 µM.
For `CCC1Oc2ccc(CN3CCC(c4ccc(Cl)cc4)CC3)cc2NC1=O` (stereo not drawn) [Compound 194, 6-((4-(4-Chlorophenyl)piperidin-1-yl)methyl)-2-ethyl-2H-benzo[b][1,4]oxazin-3(4H)-one], the Kd was ≥ 100 µM.
For `CCC1Oc2ccc(CN3CCN(c4ccncc4)CC3)cc2NC1=O` (stereo not drawn) [Compound 195, 2-Ethyl-6-((4-(pyridin-4-yl)piperazin-1-yl)methyl)-2H-benzo[b][1,4]oxazin-3(4H)-one], the Kd was ≥ 100 µM.
`CCC1Oc2ccc(CN3CCC(c4nc5ccccc5[nH]4)CC3)cc2NC1=O` (stereo not drawn) [Compound 196, 6-((4-(1H-Benzo[d]imidazol-2-yl)piperidin-1-yl)methyl)-2-ethyl-2H-benzo[b][1,4]oxazin-3(4H)-one] was tested, and the Kd was ≥ 100 µM.
`CCC1Oc2ccc(CN3CCC(c4ccccc4N)CC3)cc2NC1=O` (stereo not drawn) [Compound 198, 6-((4-(2-Aminophenyl)piperidin-1-yl)methyl)-2-ethyl-2H-benzo[b][1,4]oxazin-3(4H)-one] showed a Kd of 12.6 to 79.4 µM.

From patent US8669249B2, “Poly (ADP-ribose) polymerase (PARP) inhibitors” (Takeda Pharmaceutical Company Limited, priority 2009, dated 2014)
